Reference: paper PMC10080691, “Enzyme-Responsive Double-Locked Photodynamic Molecular Beacon for Targeted Photodynamic Anticancer Therapy” (Journal of the American Chemical Society, 2023)

Biological target: T1, MMP-2 (Homo sapiens, UniProt P08253)
T1 sequence (P08253 110-660): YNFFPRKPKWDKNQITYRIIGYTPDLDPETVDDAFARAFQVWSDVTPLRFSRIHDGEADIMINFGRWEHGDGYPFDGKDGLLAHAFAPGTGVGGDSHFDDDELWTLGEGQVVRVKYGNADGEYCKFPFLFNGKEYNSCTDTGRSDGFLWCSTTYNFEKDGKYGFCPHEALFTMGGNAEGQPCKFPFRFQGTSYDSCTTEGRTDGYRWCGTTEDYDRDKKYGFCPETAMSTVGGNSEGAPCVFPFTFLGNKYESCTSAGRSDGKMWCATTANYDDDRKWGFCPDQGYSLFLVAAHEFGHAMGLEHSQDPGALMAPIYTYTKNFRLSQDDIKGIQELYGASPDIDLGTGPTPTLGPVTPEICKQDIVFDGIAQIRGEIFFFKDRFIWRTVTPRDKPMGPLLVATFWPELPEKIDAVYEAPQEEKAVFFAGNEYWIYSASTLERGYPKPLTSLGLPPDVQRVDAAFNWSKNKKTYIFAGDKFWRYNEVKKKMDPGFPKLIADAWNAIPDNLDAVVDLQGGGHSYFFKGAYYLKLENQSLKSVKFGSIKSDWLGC
Test: MMP-2-responsive fluorescence activation and cleavage (LC-MS)
Format: biochemical
Settings: 1 μM; for on/off ratio (fluorescence intensity at 25 h / initial intensity): MMP-2 only (2 μg mL-1), PBS pH 7.4, 0.1% Tween 80, 37 °C
Experimental: To examine the response of PMB 1 toward MMP-2 and cathepsin B, its absorption and fluorescence spectra were monitored in the presence of these stimuli at 37 °C over a period of 25 h, using the non-cleavable analogue 14 as the negative control. For studying the MMP-2-responsive effect, MMP-2 (2 μg mL^–1) in PBS at pH 7.4 was used to mimic the high serum levels of this enzyme in patients with cancer.[68] The effect of cathepsin B (using a concentration of 1 unit mL^–1) was studied in the working buffer mentioned above at pH 5.0 to mimic the lysosomal environment.[69] […] Similar results were obtained for the study using cathepsin B in the buffer (Figure S8e–h). […] The more flexible ring-opening structure, however, might slightly increase the separation of the two moieties, leading to a lower FRET efficiency,[70] which could explain the small increase in fluorescence intensity. For comparison, the effect of these enzymes was also studied for 14. As expected, both the absorption and fluorescence spectra were not changed toward these two enzymes (Figure S9).
The fluorescence recovery was then determined for 1 under the aforementioned conditions, assuming that the fluorescence intensity of 8 at the same concentration in the same medium was the maximum fluorescence intensity that could be recovered. […] In addition, we also determined the corresponding on/off ratios by dividing the fluorescence intensity at 25 h by the initial fluorescence intensity under each of these conditions. […]
To further confirm that the restoration of fluorescence emission and singlet oxygen generation of PMB 1 was due to the cleavage by the enzymes, LC–MS was used to analyze the reaction mixtures (Figure 4). […] Similarly, for the mixture obtained after treating 1 (1 μM) with cathepsin B (1 unit mL^–1) in the working buffer at pH 5.0 for 6 h, a new signal with virtually the same retention time was detected in the chromatogram (Figure 4a–c). […]
All of the solutions were stirred continuously at 37 °C. The ir electronic absorption and fluorescence spectra were monitored over a period of 25 h. […]

Row | Structure (SMILES) | LC-MS signal of intact compound after enzyme treatment (MMP-2 (2 μg mL-1) in PBS, 6 h, new signal at 14.7 min (15)) | on/off ratio (fluorescence intensity at 25 h / initial intensity)
1 | CCN(CC)c1ccc2nc3ccc(/N=N/c4ccc(N(C)CCCNC(=O)OC[C@@H]5[C@@H]6CCc7nnn(CC(=O)NCCCC[C@@H]8NC(=O)CNC(=O)[C@H](CCCCN)NC(=O)[C@H](CCCNC(=N)N)NC(=O)[C@H](C(C)C)NC(=O)CNC(=O)[C@H](CC(C)C)NC(=O)[C@@H]9CCCN9C(=O)[C@H](CCCCN)NC(=O)[C@@H](N)CSCc9cc(COc%10ccc(C%11=C%12C(C)=C(I)C(/C=C/c%13ccc(OCCOCCOCCOC)cc%13)=[N+]%12[B-](F)(F)n%12c(/C=C/c%13ccc(OCCOCCOCCOC)cc%13)c(I)c(C)c%12%11)cc%10)cc(c9)CSC[C@@H](C(N)=O)NC(=O)[C@H](CCCCN)NC(=O)[C@H](CCCCN)NC(=O)CNC(=O)[C@H](CC(C)C)NC(=O)[C@H](Cc9ccccc9)NC(=O)CNC(=O)[C@H](CCCCN)NC(=O)CNC8=O)c7CC[C@@H]65)cc4)cc3[n+](-c3ccccc3)c2c1 [compound 1] | disappeared | ca. 2.7
2 | CCN(CC)c1ccc2nc3ccc(/N=N/c4ccc(N(C)CCCNC(=O)OC[C@@H]5[C@@H]6CCc7nnn(CC(=O)NCCCC[C@@H]8NC(=O)CNC(=O)[C@H](CCCCN)NC(=O)CNC(=O)CNC(=O)CNC(=O)CNC(=O)CNC(=O)[C@H](CCCCN)NC(=O)[C@@H](N)CSCc9cc(COc%10ccc(C%11=C%12C(C)=C(I)C(/C=C/c%13ccc(OCCOCCOCCOC)cc%13)=[N+]%12[B-](F)(F)n%12c(/C=C/c%13ccc(OCCOCCOCCOC)cc%13)c(I)c(C)c%12%11)cc%10)cc(c9)CSC[C@@H](C(N)=O)NC(=O)[C@H](CCCCN)NC(=O)[C@H](CCCCN)NC(=O)CNC(=O)CNC(=O)CNC(=O)CNC(=O)[C@H](CCCCN)NC(=O)CNC8=O)c7CC[C@@H]65)cc4)cc3[n+](-c3ccccc3)c2c1 [compound 14] |  | below 1.5
